Data on 21 molecules can be found in ChEMBL document CHEMBL3046852, “Synthesis and analgesic activity of new pyridine-based heterocyclic derivatives” (2012).

The test system of assay [1] is Mus musculus. Description: Analgesic activity in Mus musculus albino (mouse) assessed as latency time at 25 mg/kg, ip after 30 min by hot-plate test. To be noted: route intraperitoneal. The format is functional.
Assay [2] concerns Mus musculus. Description: Analgesic activity in Mus musculus albino (mouse) assessed as latency time at 25 mg/kg, ip after 30 min in presence of 2 mg/kg, ip of mecamylamine by tail-flick test. The format is functional. (In general: Hot-plate and tail-flick tests time the reaction to a heat stimulus.)
Assay [3] deals with Mus musculus. Description: Analgesic activity in Mus musculus albino (mouse) assessed as latency time at 25 mg/kg, ip after 30 min by tail-flick test. The format is functional. Conditions: route intraperitoneal.
Assay [4] has as its system Mus musculus. Description: Analgesic activity in Mus musculus albino (mouse) assessed as inhibition of formalin-induced paw licking behavior in both phases of formalin response at 25 mg/kg, ip administered 30 min before formalin challenge. The format is functional, organism-based. Set-up: dose 25 mg/kg.
Assay [5] deals with Mus musculus. Description: Analgesic activity in Mus musculus albino (mouse) assessed as latency time at 17.5 mg/kg, ip after 30 min by hot-plate test. The format is functional. To be noted: route intraperitoneal.
Assay [6] deals with Mus musculus. Description: Analgesic activity in Mus musculus albino (mouse) assessed as latency time at 17.5 mg/kg, ip after 30 min by tail-flick test. The format is functional. To be noted: route intraperitoneal.

Active and inactive are the calls of the source. The calls are words filed in the database; no cut-off is given here.

With `Cc1nnc(-c2cccnc2)[nH]1`, the Time with Mus musculus [1] was determined as 9.65 s; with Mus musculus [2] it was 5.17 s; with Mus musculus [3] it was 7.99 s. The result in the assay with Mus musculus [4] was Active.
For `Cc1cc(C)n(C(=O)c2cccnc2)n1` the same measures were 8.3 s, 5.18 s, 7.69 s and “Active”.
With `Clc1ccccc1-c1nnc(-c2ccncc2)[nH]1`, the Time in the assay with Mus musculus [1] is 13.12 s; with Mus musculus [2], 5.12 s; in the assay with Mus musculus [3], 11.2 s. Also, the outcome in the assay on Mus musculus [4] was Active.
`CC(=O)N1N=C(c2cccnc2)OC1c1ccccc1Cl` (stereo not drawn): the values for the Time with Mus musculus [1] and in the assay with Mus musculus [3] were 7.77 s and 5.16 s, respectively.
As for `Cc1cc(=O)[nH]n1C(=O)c1cccnc1`, the Time in the assay with Mus musculus [1] is on record as 7.54 s; in the assay with Mus musculus [3], 5.26 s.
As for `Cc1n[nH]c(-c2ccncc2)n1`, the Time in the assay on Mus musculus [1] came to 9.49 s; in the assay with Mus musculus [2], 5.22 s; with Mus musculus [3], 7.62 s. The outcome in the assay with Mus musculus [4] was Active.
Regarding `CC(=O)N1N=C(c2cccnc2)OC1C` (stereo not drawn), the Time in the assay on Mus musculus [1] worked out at 10.03 s; in the assay with Mus musculus [2], 5.14 s; in the assay on Mus musculus [3] it was 8.95 s. For the same molecule, in the assay with Mus musculus [4], the result was Active.
Regarding `Cc1cc(=O)[nH]n1C(=O)c1ccncc1`, the figures for the Time in the assay with Mus musculus [1] and in the assay with Mus musculus [3] were 7.51 s and 5.7 s, respectively.
`CC(=O)N1N=C(c2ccncc2)OC1C` (stereo not drawn): the Time is recorded as 12.93 s with Mus musculus [1], 5.14 s in the assay on Mus musculus [2] and 11.03 s in the assay on Mus musculus [3]. Moreover, the result in the assay with Mus musculus [4] was Active.
With `CC(=O)N1N=C(c2cccnc2)OC1c1ccccc1[N+](=O)[O-]` (stereo not drawn), the values for the Time in the assay with Mus musculus [1] and with Mus musculus [3] were 7.29 s and 4.93 s, respectively.
In the case of `O=[N+]([O-])c1ccccc1-c1nnc(-c2ccncc2)[nH]1`, the Time in the assay with Mus musculus [1] is recorded as 15.1 s; in the assay on Mus musculus [2], 5.23 s; in the assay on Mus musculus [3] it was 11.8 s. In addition, the outcome in the assay with Mus musculus [4] was Active.
Turning to `c1ccc(-c2nnc(-c3ccncc3)[nH]2)cc1`, the Time in the assay with Mus musculus [1] stood at 7.81 s; in the assay with Mus musculus [3], 5.33 s.
Regarding `CC(=O)N1N=C(c2ccncc2)OC1c1ccccc1Cl` (stereo not drawn), the figures for the Time with Mus musculus [1] and with Mus musculus [3] were 7.81 s and 6.03 s, respectively.
As to `O=[N+]([O-])c1ccccc1-c1nnc(-c2cccnc2)[nH]1`, the Time is 8.47 s in the assay on Mus musculus [1] and 6.15 s in the assay on Mus musculus [3].
In the case of `Cc1cc(C)n(C(=O)c2ccncc2)n1`, the Time with Mus musculus [1] was found to be 8.11 s; in the assay with Mus musculus [3] it was 6.4 s.
For `c1ccc(-c2n[nH]c(-c3cccnc3)n2)cc1` the same measures were 7.5 s and 4.73 s.
In the case of `CC(=O)N1N=C(c2ccncc2)OC1c1ccccc1` (stereo not drawn), the Time in the assay on Mus musculus [1] was found to be 7.78 s; in the assay with Mus musculus [3] it was 6.03 s.
As for `Clc1ccccc1-c1nnc(-c2cccnc2)[nH]1`, the Time worked out at 8.55 s with Mus musculus [1] and 5.53 s in the assay on Mus musculus [3].
With `CC(=O)N1N=C(c2ccncc2)OC1c1ccccc1[N+](=O)[O-]` (stereo not drawn), the Time with Mus musculus [1] came out at 7.48 s; in the assay on Mus musculus [3], 4.76 s.
With `CC(C)=CCN1CC[C@@]2(C)c3cc(O)ccc3C[C@@H]1[C@@H]2C` (relative stereo), the Time with Mus musculus [5] was 19.89 s; in the assay with Mus musculus [6], 12.84 s.
As for `CC(=O)N1N=C(c2cccnc2)OC1c1ccccc1` (stereo not drawn), the Time in the assay with Mus musculus [1] is 10.03 s; in the assay on Mus musculus [2], 5.13 s; with Mus musculus [3] it was 8.44 s. Moreover, in the assay on Mus musculus [4], the outcome was Active.
